According to US8440612B2, “Controlling giardiosis” (Bayer Intellectual Property GmbH, priority 2008, dated 2013):
Values joined by “and” are separate entries in the source; they are usually repeats but may differ in a detail not shown here. Equal values may be shown once.

Tested on: Giardia duodenalis
Experiment: Giardia cyst excretion in infected Beagle puppies, oral dose on three successive days (Biological Example 2)
Assay type: in vivo
Method: Method: The quantitative determination of the cyst excretion was performed using a modified version of Hewlett (18): 4 g faeces were dissolved in 100 ml of water, sieved and allowed to sediment. The sediment was applied to a 1 M sucrose gradient (specific gravity 1.13), and the cysts, which were concentrated at the sucrose/water boundary layer after the centrifugation were pipetted off. After a wash step followed by centrifugation, the cysts in the pellet were counted. To this end, an aliquot of the pellet was counted under the microscope, and the number of cysts per g faeces was calculated.
Beagle puppies aged 11-15 weeks which had at least 2 weeks to settle in the animal centre before being infected were infected orally with 50 000 Giardia duodenalis cysts before the beginning of the study. The cysts for the infection were obtained with the aid of a sucrose gradient from the faeces of dogs which excreted Giardia cysts and stored at 4 degrees centigrade in Bacto-Casitone medium for no longer than 2 weeks. 18 puppies which excreted Giardia cysts were included in the study and kept in individual cages in order to collect the daily total faeces. The quantitative determination of the cyst excretion was performed as an […], with the modification that the aliquot of the pellet was counted under the microscope with the aid of a Fuchs-Rosenthal hematocytometer. The quantitative determination of the cyst excretion was performed for 4 days before the treatment (day −3 to 0), and the puppies were divided randomly into three groups, taking into consideration the cyst excretion. […] The 6 dogs of the control group remained untreated. The quantitative determination of the cyst excretion was continued from day 1 to day 8 after the treatment.

## COC(=O)Nc1nc2ccc(Sc3ccccc3)cc2[nH]1 [fenbendazole]
Calculated activity on cyst excretion versus infected untreated control, day 3 to 8, 50 mg/kg oral on days 0, 1 and 2, 50 mg/kg
  Activity: 48.3%
Group line Σ (6 dogs), D0, day of treatment, 50 mg/kg oral on days D0, D1 and D2
  Σ Giardia cyst excretion D0: 20274 cysts per g faeces
Group line Σ (6 dogs), D1, day of treatment, 50 mg/kg oral on days D0, D1 and D2
  Σ Giardia cyst excretion D1: 17010 cysts per g faeces
Group line Σ (6 dogs), D2, day of treatment, 50 mg/kg oral on days D0, D1 and D2
  Σ Giardia cyst excretion D2: 1735 cysts per g faeces
Group line Σ (6 dogs), D3, after the treatment, 50 mg/kg oral on days D0, D1 and D2
  Σ Giardia cyst excretion D3: 13929 cysts per g faeces
Group line Σ (6 dogs), D4, after the treatment, 50 mg/kg oral on days D0, D1 and D2
  Σ Giardia cyst excretion D4: 12781 cysts per g faeces
Group line Σ (6 dogs), D5, after the treatment, 50 mg/kg oral on days D0, D1 and D2
  Σ Giardia cyst excretion D5: 7555 cysts per g faeces
Group line Σ (6 dogs), D6, after the treatment, 50 mg/kg oral on days D0, D1 and D2
  Σ Giardia cyst excretion D6: 5494 cysts per g faeces
Group line Σ (6 dogs), D7, after the treatment, 50 mg/kg oral on days D0, D1 and D2
  Σ Giardia cyst excretion D7: 12913 cysts per g faeces
Group line Σ (6 dogs), D8, after the treatment, 50 mg/kg oral on days D0, D1 and D2
  Σ Giardia cyst excretion D8: 4795 cysts per g faeces
Group line Σ (6 dogs), day −1, before treatment, 50 mg/kg oral on days D0, D1 and D2
  Σ Giardia cyst excretion D−1: 58990 cysts per g faeces
Group line Σ (6 dogs), day −2, before treatment, 50 mg/kg oral on days D0, D1 and D2
  Σ Giardia cyst excretion D−2: 22257 cysts per g faeces
Group line Σ (6 dogs), day −3, before treatment, 50 mg/kg oral on days D0, D1 and D2
  Σ Giardia cyst excretion D−3: 29963 cysts per g faeces
group, after treatment, 50 mg/kg oral on days 0, 1 and 2
  Σ Giardia cyst excretion Day 3 to 8: 9578 cysts per g faeces
group, before treatment, 50 mg/kg oral on days 0, 1 and 2
  Σ Giardia cyst excretion Day: −3 to 0: 32871 cysts per g faeces
Individual dogs, D0, day of treatment, 50 mg/kg oral on days D0, D1 and D2, 50 mg/kg
  Giardia cyst excretion D0: 49400 cysts per g faeces and 28559 cysts per g faeces and 639 cysts per g faeces and 2719 cysts per g faeces and 17037 cysts per g faeces and 23290 cysts per g faeces
Individual dogs, D1, day of treatment, 50 mg/kg oral on days D0, D1 and D2, 50 mg/kg
  Giardia cyst excretion D1: 67200 cysts per g faeces and 14596 cysts per g faeces and 872 cysts per g faeces and 12488 cysts per g faeces and 6178 cysts per g faeces and 723 cysts per g faeces
Individual dogs, D2, day of treatment, 50 mg/kg oral on days D0, D1 and D2, 50 mg/kg
  Giardia cyst excretion D2: 0 cysts per g faeces (2×) and 5980 cysts per g faeces and 3386 cysts per g faeces and 490 cysts per g faeces and 552 cysts per g faeces
Individual dogs, D3, after the treatment, 50 mg/kg oral on days D0, D1 and D2, 50 mg/kg
  Giardia cyst excretion D3: 67109 cysts per g faeces and 7043 cysts per g faeces and 961 cysts per g faeces and 3075 cysts per g faeces and 0 cysts per g faeces and 5388 cysts per g faeces
Individual dogs, D4, after the treatment, 50 mg/kg oral on days D0, D1 and D2, 50 mg/kg
  Giardia cyst excretion D4: 49423 cysts per g faeces and 652 cysts per g faeces and 439 cysts per g faeces and 12038 cysts per g faeces and 0 cysts per g faeces and 14133 cysts per g faeces
Individual dogs, D5, after the treatment, 50 mg/kg oral on days D0, D1 and D2, 50 mg/kg
  Giardia cyst excretion D5: 3116 cysts per g faeces and 18725 cysts per g faeces and 4432 cysts per g faeces and 0 cysts per g faeces (2×) and 19057 cysts per g faeces
Individual dogs, D6, after the treatment, 50 mg/kg oral on days D0, D1 and D2, 50 mg/kg
  Giardia cyst excretion D6: 4635 cysts per g faeces and 7546 cysts per g faeces and 5594 cysts per g faeces and 3691 cysts per g faeces and 0 cysts per g faeces and 11495 cysts per g faeces
Individual dogs, D7, after the treatment, 50 mg/kg oral on days D0, D1 and D2, 50 mg/kg
  Giardia cyst excretion D7: 17474 cysts per g faeces and 20780 cysts per g faeces and 260 cysts per g faeces and 18056 cysts per g faeces and 251 cysts per g faeces and 20657 cysts per g faeces
Individual dogs, D8, after the treatment, 50 mg/kg oral on days D0, D1 and D2, 50 mg/kg
  Giardia cyst excretion D8: 0 cysts per g faeces (2×) and 5555 cysts per g faeces and 5968 cysts per g faeces and 10875 cysts per g faeces and 6370 cysts per g faeces
Individual dogs, day −1, before treatment, 50 mg/kg oral on days D0, D1 and D2, 50 mg/kg
  Giardia cyst excretion D−1: 243143 cysts per g faeces and 56014 cysts per g faeces and 2349 cysts per g faeces and 16328 cysts per g faeces and 14744 cysts per g faeces and 21360 cysts per g faeces
Individual dogs, day −2, before treatment, 50 mg/kg oral on days D0, D1 and D2, 50 mg/kg
  Giardia cyst excretion D−2: 47754 cysts per g faeces and 23808 cysts per g faeces and 26526 cysts per g faeces and 18113 cysts per g faeces and 7230 cysts per g faeces and 10109 cysts per g faeces
